In patent US20230286970A1, “NOVEL OXADIAZOLE-BASED SELECTIVE HDAC6 INHIBITORS” (ITALFARMACO S.P.A., priority 2020, published 2023):

Columns and labels:
[1] = molecular target: recombinant human HDAC6 (Homo sapiens (Human), UniProt Q9UBN7); assay: Enzymatic screening, HDAC6 inhibition (fluorogenic FdL_G substrate); assay type: biochemical
In short: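 Enzyme was preincubated with compound (8 doses, triplicate, 1% DMSO) in 25 mM Tris-HCl pH 8, 130 mM NaCl, 0.05% Tween-20, 10% glycerol, with BSA. A FLUOR DE LYS-Green substrate was then added, and fluorescence was read after developer plus 2 μM TSA.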

[2] = Stability in rat plasma; conditions: after 4 hours, 37° C.
Protocol: In order to evaluate the stability to circulating enzymes, test compounds were incubated in human and rat plasma at 37° C. in a thermostated oscillating bath. Each test compound was incubated at μM concentration (50 μM when the samples were analysed by UV/HPLC, 1 or 2 μM when the samples were analysed by LC-MS/MS) for 0, 15, 30 minutes and 1, 2 and 4 hours. The reaction was stopped placing samples on ice bath and adding acidified acetonitrile. After centrifugation (10 minutes at 14000 rpm) an aliquot of the supernatant was diluted with water, filtered with 0.45 μm regenerated cellulose syringe filters and injected in HPLC-UV or in LC-MS/MS. The percentage of the remaining amount at the various incubation times with respect to the initial amount were calculated. The half-life in plasma was also calculated.

[3] = Stability to Phase I metabolism in human S9 liver fraction; conditions: after 90 minutes, 37° C.
Protocol: (§1) Test compounds were incubated in rat and human liver S9 fraction at 37° C. up to 90 minutes in order to evaluate their stability to Phase I metabolism by hepatic enzymes. Each test compound was incubated at μM concentration (50 μM when the samples were analysed by UV/HPLC, 1 or 2 μM when the samples were analysed by LC-MS/MS) with S9 fraction (protein content 2 mg/m L) in 100 mM phosphate buffer (pH 7.4), 3.3 mM MgCl2 and 1.3 mM NADPH for 0, 10, 30, 60 and 90 minutes at 37° C. in a thermostated oscillating bath. The reaction was stopped placing samples on ice bath and adding acidified acetonitrile. After centrifugation (10 minutes at 14000 rpm) an aliquot of the supernatant was diluted with water, filtered with 0.45 μm regenerated cellulose syringe filters and injected in HPLC-UV or in LC-MS/MS. The percentage of the remaining amount at the various incubation times with respect to the initial amount were calculated.

[4] = molecular target: recombinant human HDAC1 (Homo sapiens (Human), UniProt Q13547); assay: Enzymatic screening, HDAC1 inhibition (fluorogenic FdL_G substrate); assay type: biochemical
Chain of recombinant human HDAC1 (Q13547 whole entry): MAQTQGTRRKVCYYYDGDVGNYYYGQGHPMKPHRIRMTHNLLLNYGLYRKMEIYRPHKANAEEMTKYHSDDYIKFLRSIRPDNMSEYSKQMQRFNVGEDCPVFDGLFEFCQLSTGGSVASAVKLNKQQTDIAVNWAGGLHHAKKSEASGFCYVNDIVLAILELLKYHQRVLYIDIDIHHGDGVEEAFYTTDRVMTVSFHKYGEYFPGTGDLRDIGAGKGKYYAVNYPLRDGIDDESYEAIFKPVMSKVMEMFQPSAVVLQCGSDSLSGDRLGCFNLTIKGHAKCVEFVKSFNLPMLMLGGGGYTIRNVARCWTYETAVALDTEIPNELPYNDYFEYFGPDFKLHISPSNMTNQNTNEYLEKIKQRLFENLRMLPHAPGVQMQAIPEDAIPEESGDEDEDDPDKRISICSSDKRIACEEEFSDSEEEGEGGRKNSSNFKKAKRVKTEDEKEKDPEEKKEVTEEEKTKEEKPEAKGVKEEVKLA
In short: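 Recombinant human HDAC1 inhibition was measured fluorometrically using the FLUOR DE LYS-Green (FdL_G) substrate. Compounds at 8 doses (1% DMSO final) in Tris-HCl pH 8 buffer with NaCl, Tween-20 and glycerol were preincubated in triplicate with enzyme and 1 mg/mL BSA, then given substrate. Developer I plus 2 μM TSA was added, and fluorescence read after 25 minutes in the dark.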

[5] = Stability to Phase I metabolism in rat S9 liver fraction; conditions: after 90 minutes, 37° C.
Protocol: as §1

[6] = Stability in human plasma; conditions: after 4 hours, 37° C.

Chain of recombinant human HDAC6 (Q9UBN7 whole entry): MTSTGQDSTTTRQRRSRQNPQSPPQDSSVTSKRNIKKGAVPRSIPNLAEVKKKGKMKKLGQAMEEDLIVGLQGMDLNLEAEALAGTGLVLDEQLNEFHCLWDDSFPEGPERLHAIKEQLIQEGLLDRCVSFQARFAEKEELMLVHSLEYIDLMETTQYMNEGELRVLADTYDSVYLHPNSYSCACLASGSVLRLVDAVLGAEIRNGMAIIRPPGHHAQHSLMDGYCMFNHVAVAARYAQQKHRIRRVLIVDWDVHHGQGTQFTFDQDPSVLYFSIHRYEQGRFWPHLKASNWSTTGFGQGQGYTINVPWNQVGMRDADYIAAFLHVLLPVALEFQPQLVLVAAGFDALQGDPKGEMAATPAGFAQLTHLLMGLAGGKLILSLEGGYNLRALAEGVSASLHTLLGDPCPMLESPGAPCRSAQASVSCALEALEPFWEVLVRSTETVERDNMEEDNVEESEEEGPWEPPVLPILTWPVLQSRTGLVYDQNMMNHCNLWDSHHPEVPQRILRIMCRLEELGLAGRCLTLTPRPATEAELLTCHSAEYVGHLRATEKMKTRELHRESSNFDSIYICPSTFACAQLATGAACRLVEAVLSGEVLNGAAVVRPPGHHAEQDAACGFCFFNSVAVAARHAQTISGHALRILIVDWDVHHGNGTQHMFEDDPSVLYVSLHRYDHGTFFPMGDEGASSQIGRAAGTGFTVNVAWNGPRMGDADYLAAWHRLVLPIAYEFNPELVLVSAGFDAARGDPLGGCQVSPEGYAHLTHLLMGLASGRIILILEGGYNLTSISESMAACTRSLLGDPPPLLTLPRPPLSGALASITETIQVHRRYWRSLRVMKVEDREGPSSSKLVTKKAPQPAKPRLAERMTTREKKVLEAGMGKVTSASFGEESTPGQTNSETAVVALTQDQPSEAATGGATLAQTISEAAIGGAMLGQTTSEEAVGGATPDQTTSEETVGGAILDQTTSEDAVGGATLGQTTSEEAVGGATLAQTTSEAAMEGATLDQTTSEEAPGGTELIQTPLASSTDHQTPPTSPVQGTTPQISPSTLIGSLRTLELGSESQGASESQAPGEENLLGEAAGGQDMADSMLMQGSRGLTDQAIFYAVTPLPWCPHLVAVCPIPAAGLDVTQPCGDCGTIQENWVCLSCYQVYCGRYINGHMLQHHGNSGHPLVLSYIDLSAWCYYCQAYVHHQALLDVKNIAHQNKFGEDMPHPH

| IC50 [1] | residual percentage in RAT PLASMA [2] | residual percentage in HUMAN S9 FRACTION [3] | IC50 [4] | residual percentage in RAT S9 FRACTION [5] | residual percentage in HUMAN PLASMA [6] | Compound |
| --- | --- | --- | --- | --- | --- | --- |
| 46 nM | 84% | 78% | > 200 µM | 10% | 88% | Fc1cc(-c2nnc(C(F)F)o2)cc(F)c1Cn1cc(-c2cccs2)nn1 [compound 122, 2-(3,5-difluoro-4-((4-(thiophen-2-yl)-1H-1,2,3-triazol-1-yl)methyl)phenyl)-5-(difluoromethyl)-1,3,4-oxadiazole] |
| 129 nM | 70% | 72% | 999 µM | 0% | 91% | FC(F)c1nnc(-c2ccc(Cn3nnc(-c4csc5ccccc45)n3)cc2)o1 [compound 207, 2-(4-((5-(benzo[b]thiophen-3-yl)-2H-tetrazol-2-yl)methyl)phenyl)-5-(difluoromethyl)-1,3,4-oxadiazole] |
| 65 nM | 97% | 83% | > 200 µM | 79% | 98% | Nc1ccc(-c2cn(Cc3ccc(-c4nnc(C(F)F)o4)cc3)cn2)cn1 [compound 151, 5-(1-(4-(5-(difluoromethyl)-1,3,4-oxadiazol-2-yl)benzyl)-1H-imidazol-4-yl)pyridin-2-amine] |
| 272 nM | 81% | 98% | > 200 µM | 65% | 99% | Nc1ccc(-c2nc(Cc3ccc(-c4nnc(C(F)F)o4)cc3)no2)cn1 [compound 247, 5-(3-(4-(5-(difluoromethyl)-1,3,4-oxadiazol-2-yl)benzyl)-1,2,4-oxadiazol-5-yl)pyridin-2-amine] |
| 22 nM | 74% | 92% | > 200 µM | 99% | 83% | O=C1Nc2ccc(-c3cn(Cc4ccc(-c5nnc(C(F)F)o5)cn4)nn3)cc2[C@@]12CCNC2 (single isomer, unassigned) [compound 273, 5-(1-((5-(5-(difluoromethyl)-1,3,4-oxadiazol-2-yl)pyridin-2-yl)methyl)-1H-1,2,3-triazol-4-yl)spiro[indoline-3,3′-pyrrolidin]-2-one] |
| 202 nM | 84% | 92% | > 200 µM | 63% | 90% | CCCCC(c1ccc(-c2nnc(C(F)F)o2)cc1)n1cc(-c2ccc(N)nc2)nn1 (stereo not drawn) [compound 235, 5-(1-(1-(4-(5-(difluoromethyl)-1,3,4-oxadiazol-2-yl)phenyl)pentyl)-1H-1,2,3-triazol-4-yl)pyridin-2-amine] |
| 33 nM | 87% | 78% | > 200 µM | 14% | 87% | CN(C)C(=O)c1cccc(-c2nnn(Cc3ccc(-c4nnc(C(F)F)o4)cc3)n2)c1 [compound 81, 3-(2-(4-(5-(difluoromethyl)-1,3,4-oxadiazol-2-yl)benzyl)-2H-tetrazol-5-yl)-N,N-dimethylbenzamide] |
| 38 nM | 96% | 84% | > 200 µM | 95% | 76% | O=C1NCc2ccc(-c3nnn(Cc4ccc(-c5nnc(C(F)F)o5)c(F)c4)n3)cc21 [compound 97, 6-(2-(4-(5-(difluoromethyl)-1,3,4-oxadiazol-2-yl)-3-fluorobenzyl)-2H-tetrazol-5-yl)isoindolin-1-one] |
| 51 nM | 82% | 83% | > 200 µM | 58% | 92% | COc1ncccc1-c1cn(Cc2ccc(-c3nnc(C(F)F)o3)cc2)nn1 [compound 131, 2-(difluoromethyl)-5-(4-((4-(2-methoxypyridin-3-yl)-1H-1,2,3-triazol-1-yl)methyl)phenyl)-1,3,4-oxadiazole] |
| 33 nM | 88% | 94% | > 200 µM | 46% | 97% | CN1CCC(NC(=O)c2cccc(-c3nnn(Cc4ccc(-c5nnc(C(F)F)o5)cc4)n3)c2)CC1 [compound 80, 3-(2-(4-(5-(difluoromethyl)-1,3,4-oxadiazol-2-yl)benzyl)-2H-tetrazol-5-yl)-N-(1-methylpiperidin-4-yl)benzamide] |

Second part, the compound before the results:

| Compound | IC50 [1] | residual percentage in RAT PLASMA [2] | residual percentage in HUMAN S9 FRACTION [3] | IC50 [4] | residual percentage in RAT S9 FRACTION [5] | residual percentage in HUMAN PLASMA [6] |
| --- | --- | --- | --- | --- | --- | --- |
| O=C(c1cccc(-c2nnn(Cc3ccc(-c4nnc(C(F)F)o4)cn3)n2)c1)N1CCOCC1 [compound 69, (3-(2-((5-(5-(difluoromethyl)-1,3,4-oxadiazol-2-yl)pyridin-2-yl)methyl)-2H-tetrazol-5-yl)phenyl)(morpholino)methanone] | 30 nM | 79% | 97% | > 200 µM | 83% | 79% |
| Fc1cc(-c2nnc(C(F)F)o2)cc(F)c1Cn1cc(-c2cnc3cccnn23)nn1 [compound 67, 2-(3,5-difluoro-4-((4-(imidazo[1,2-b]pyridazin-3-yl)-1H-1,2,3-triazol-1-yl)methyl)phenyl)-5-(difluoromethyl)-1,3,4-oxadiazole] | 29 nM | 74% | 77% | > 200 µM | 39% | 74% |
| Nc1ccc(-c2cn(Cc3cc(F)c(-c4nnc(C(F)F)o4)cc3F)nn2)cn1 [compound 39, 5-(1-(4-(5-(difluoromethyl)-1,3,4-oxadiazol-2-yl)-2,5-difluorobenzyl)-1H-1,2,3-triazol-4-yl)pyridin-2-amine] | 18 nM | 71% | 100% | > 200 µM | 96% | 83% |
| Cc1ncc(-c2nnn(Cc3ccc(-c4nnc(C(F)F)o4)cc3)n2)cc1N [compound 65, 5-(2-(4-(5-(difluoromethyl)-1,3,4-oxadiazol-2-yl)benzyl)-2H-tetrazol-5-yl)-2-methylpyridin-3-amine] | 28 nM | 76% | 99% | > 200 µM | 35% | 94% |
| Nc1ccc(-c2cnn(Cc3ccc(-c4nnc(C(F)F)o4)cc3)c2)cn1 [compound 211, 5-(1-(4-(5-(difluoromethyl)-1,3,4-oxadiazol-2-yl)benzyl)-1H-pyrazol-4-yl)pyridin-2-amine] | 147 nM | 89% | 63% | > 200 µM | 80% | 91% |
| FC(F)c1nnc(-c2ccc(Cn3cc(-c4ccc(NC5=NCCN5)cc4)cn3)nc2)o1 [compd. 270, N-(4-(1-((5-(5-(difluoromethyl)-1,3,4-oxadiazol-2-yl)pyridin-2-yl)methyl)-1H-pyrazol-4-yl)phenyl)-4,5-dihydro-1H-imidazol-2-amine] | 18 nM | 78% | 93% | > 200 µM | 79% | 89% |
| NC(=O)c1cccc(-c2nnn(Cc3ccc(-c4nnc(C(F)F)o4)cc3)n2)c1 [compound 75, 3-(2-(4-(5-(difluoromethyl)-1,3,4-oxadiazol-2-yl)benzyl)-2H-tetrazol-5-yl)benzamide] | 32 nM | 76% | 85% | > 200 µM | 90% | 96% |
| COc1ncccc1-c1cn(Cc2ccc(-c3nnc(C(F)F)o3)cn2)nn1 [compound 53, 2-(difluoromethyl)-5-(6-((4-(2-methoxypyridin-3-yl)-1H-1,2,3-triazol-1-yl)methyl)pyridin-3-yl)-1,3,4-oxadiazole] | 23 nM | 78% | 88% | > 200 µM | 91% | 77% |
| Nc1nc2ccc(-c3cn(Cc4ccc(-c5nnc(C(F)F)o5)cn4)nn3)cc2[nH]1 [Compd. 30, 6-(1-((5-(5-(difluoromethyl)-1,3,4-oxadiazol-2-yl)pyridin-2-yl)methyl)-1H-1,2,3-triazol-4-yl)-1H-benzo[d]imidazol-2-amine] | 10 nM | 68% | 80% | > 200 µM | 96% | 87% |
